Source: article PMC11335209, “Aqp4a and Trpv4 mediate regulatory cell volume increase for swimming maintenance of marine fish spermatozoa” (Cellular and Molecular Life Sciences: CMLS, 2024)
Blank lines part the entries; values can stand above or below the molecule they belong to.

How the values were obtained:
Format in all cases: cell-based
Aqp4a-M43 = biological target: T1, Aqp4a-M43 (Sparus aurata, UniProt A0A678R2D9); assay: oocyte swelling assay (osmotic water permeability Lp); settings: 5 min pretreatment, hyposmotic challenge -100 mOsm, pH 7.4
T1 construct: gene Aqp4; short isoform starting at Met-43, 31 kDa; cRNA expressed in Xenopus laevis oocytes
T1 sequence (A0A678R2D9 entry or part of it): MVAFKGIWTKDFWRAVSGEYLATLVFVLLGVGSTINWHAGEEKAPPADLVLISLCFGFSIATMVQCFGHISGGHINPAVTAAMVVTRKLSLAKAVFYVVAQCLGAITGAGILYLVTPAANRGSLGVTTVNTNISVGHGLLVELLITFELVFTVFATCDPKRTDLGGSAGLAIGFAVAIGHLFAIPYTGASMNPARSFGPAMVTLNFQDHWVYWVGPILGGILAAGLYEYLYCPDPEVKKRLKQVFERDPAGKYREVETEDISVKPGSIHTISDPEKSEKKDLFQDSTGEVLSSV

Trpv4_v1 = biological target: T2, Trpv4_v1 (Sparus aurata, UniProt A0A671Y4W2); assay: two-electrode voltage clamp in Xenopus oocytes, constitutive current at -85 mV
T2 construct: gene trpv4; full-length cDNA from testis in pT7Ts; cRNA expressed alone in Xenopus laevis oocytes; calculated monomer 99 kDa
T2 sequence (A0A671Y4W2 1-876): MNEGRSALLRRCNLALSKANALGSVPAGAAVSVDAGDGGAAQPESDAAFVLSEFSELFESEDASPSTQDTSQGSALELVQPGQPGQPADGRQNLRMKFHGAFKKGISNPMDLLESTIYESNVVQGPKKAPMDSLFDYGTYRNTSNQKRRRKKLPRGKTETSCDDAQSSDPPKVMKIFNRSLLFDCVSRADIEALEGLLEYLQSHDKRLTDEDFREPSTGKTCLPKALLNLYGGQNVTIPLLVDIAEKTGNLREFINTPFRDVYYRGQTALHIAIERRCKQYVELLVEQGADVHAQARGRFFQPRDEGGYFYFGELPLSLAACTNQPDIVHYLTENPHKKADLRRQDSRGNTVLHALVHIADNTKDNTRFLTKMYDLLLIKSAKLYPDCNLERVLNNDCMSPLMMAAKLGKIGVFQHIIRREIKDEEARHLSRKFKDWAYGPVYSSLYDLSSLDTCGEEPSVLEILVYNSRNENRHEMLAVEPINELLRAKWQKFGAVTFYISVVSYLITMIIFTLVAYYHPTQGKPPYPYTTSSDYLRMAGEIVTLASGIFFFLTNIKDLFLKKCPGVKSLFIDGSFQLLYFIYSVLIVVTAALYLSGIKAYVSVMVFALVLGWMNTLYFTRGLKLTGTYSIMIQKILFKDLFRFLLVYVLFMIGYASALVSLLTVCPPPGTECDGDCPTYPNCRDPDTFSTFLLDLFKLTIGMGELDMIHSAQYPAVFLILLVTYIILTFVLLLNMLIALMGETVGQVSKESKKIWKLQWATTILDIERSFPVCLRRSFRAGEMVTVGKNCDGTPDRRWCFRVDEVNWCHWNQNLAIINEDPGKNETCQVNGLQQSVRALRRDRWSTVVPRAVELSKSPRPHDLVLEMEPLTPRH

Trpv4_v10 = biological target: T3, Trpv4_v10 (Sparus aurata, UniProt A0A671Y517); assay: as above
T3 construct: gene trpv4; synthesized full-length splice-variant cDNA in pT7Ts; cRNA expressed alone in Xenopus laevis oocytes; divergent N-terminus
T3 sequence (A0A671Y517 1-877): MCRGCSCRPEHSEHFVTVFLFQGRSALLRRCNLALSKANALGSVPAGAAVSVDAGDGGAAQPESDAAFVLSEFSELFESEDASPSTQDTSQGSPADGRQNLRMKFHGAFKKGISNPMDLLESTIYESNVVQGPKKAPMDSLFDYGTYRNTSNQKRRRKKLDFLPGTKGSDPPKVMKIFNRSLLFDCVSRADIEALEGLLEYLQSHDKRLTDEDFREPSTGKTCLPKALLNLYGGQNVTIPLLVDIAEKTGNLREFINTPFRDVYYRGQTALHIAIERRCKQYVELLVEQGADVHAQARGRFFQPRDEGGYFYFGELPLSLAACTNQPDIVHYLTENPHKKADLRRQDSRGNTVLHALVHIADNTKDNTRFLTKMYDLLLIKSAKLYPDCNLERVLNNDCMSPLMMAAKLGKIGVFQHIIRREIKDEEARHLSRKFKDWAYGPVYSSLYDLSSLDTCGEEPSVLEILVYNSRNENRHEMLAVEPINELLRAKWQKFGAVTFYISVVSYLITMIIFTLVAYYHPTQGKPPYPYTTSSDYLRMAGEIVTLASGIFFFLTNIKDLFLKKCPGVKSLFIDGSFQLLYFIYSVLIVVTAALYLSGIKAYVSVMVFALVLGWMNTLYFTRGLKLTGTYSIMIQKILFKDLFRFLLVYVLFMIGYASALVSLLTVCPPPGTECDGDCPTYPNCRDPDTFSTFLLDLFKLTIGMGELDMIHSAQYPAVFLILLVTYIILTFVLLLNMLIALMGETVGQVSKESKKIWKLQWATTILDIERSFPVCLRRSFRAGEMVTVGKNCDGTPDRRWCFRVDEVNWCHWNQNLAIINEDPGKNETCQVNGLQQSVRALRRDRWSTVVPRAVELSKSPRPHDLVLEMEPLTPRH

[1] = 5 min exposure, isosmotic 220 mOsm, pH 7.4, room temperature

% reduction of Lp at 20 μM (Aqp4a-M43): ~ 82%
Structure (SMILES): O=C(Nc1nncs1)c1cccnc1 [TGN-020, 2-(Nicotinamide)-1,3,4-thiadiazole]

Structure (SMILES): N.N.N.N.N.N.N.N.N.N.N.N.N.N.[Cl-].[Cl-].[Cl-].[Cl-].[Cl-].[Cl-].[O-2].[O-2].[Ru+3].[Ru+3].[Ru+4] [ruthenium red]
% inhibition at 10 μM (Trpv4_v1; [1]): ~ 28% | % inhibition at 10 μM (Trpv4_v10; [1]): ~ 5%

inhibition at 100 µM (Trpv4_v1): ~40% | inhibition at 100 µM (Trpv4_v10): ~9%
Structure (SMILES): CC(C)NCCN(C(C)C)S(=O)(=O)c1ccc(Cl)cc1Cl [RN-1734]

Structure (SMILES): Cc1c(C(=O)Nc2cccc(C(F)(F)F)c2)cc(-c2ccccc2)n1CCCN1CCOCC1 [HC-067047]
inhibition at 10 µM (Trpv4_v1): ~8% | inhibition at 10 µM (Trpv4_v10): ~8%
